# In publication PMC12114947, “Evaluation of Violacein Metabolic Stability and Metabolite Identification in Human, Mouse, and Rat Liver Microsomes” (Pharmaceutics, 2025):
# Key:
# [1] = Identification of violacein metabolites in HLMs by LC-QTOF; assay type: in vitro ADME, human; conditions: all samples after 120 min of reaction, 105 µM violacein, 5 mg/mL protein
# Protocol: (§1) The metabolism of violacein was investigated using HLMs and RLMs, by incubating the samples for 120 min under four conditions (n = 1): zero sample, phase I-only incubation, phase I and II incubation, and phase II-only incubation, as described by Godoi et al..
# (§2) For all samples, 25 µL of the 843 µM violacein stock solution was added to propylene tubes and evaporated to dryness under a nitrogen stream. The dried residue was then reconstituted with 2 µL of methanol, ensuring that the final organic solvent concentration remained below 1% to minimize any potential impact on microsomal activity, as described by Jia et al..
# (§3) To assess phase I metabolism, 148 μL of an NADPH-regenerating system containing 1.1 mM NADP+, 10 mM glucose-6-phosphate, 1 U/mL glucose-6-phosphate dehydrogenase, 5 mM sodium citrate, and 66 mM magnesium chloride in 100 mM phosphate buffer (pH 7.4) were added to the tubes. The solutions were pre-incubated for 5 min at 37 °C and 300 rpm in an MTC 100 thermo shaker incubator, and metabolic reactions were initiated by adding 50 μL of HLMs or RLMs (20 mg/mL), to yield final concentrations of 105 µM violacein and 5 mg of microsomal protein/mL. […]
# (§4) The acquired chromatograms and mass spectra were analyzed using Insight Explore software version 1.0.0.0 (Shimadzu, Kyoto, Japan). […]
# [2] = Identification of violacein metabolites in RLMs by LC-QTOF; assay type: in vitro ADME, rat; conditions: all samples after 120 min of reaction, 105 µM violacein, 5 mg/mL protein
# Protocol: as §1, §2, §3, §4
# Trichophyton rubrum = tested on: Trichophyton rubrum; parameters: method as in PMID 26428920; conditions: cited from earlier work
# Candida albicans = tested on: Candida albicans; parameters: method as in PMID 26428920; conditions: cited from earlier work
# Candida tropicalis = tested on: Candida tropicalis; parameters: method as in PMID 26428920; conditions: cited from earlier work
# Caco-2 cells = tested on: Caco-2 cells; parameters: method as in PMID 16889929; conditions: cited from earlier work
# [3] = tested on: P. falciparum 3D7 strain (chloroquine-sensitive); parameters: method as in PMID 29642881, PMID 33689276; conditions: P. falciparum 3D7 (chloroquine-sensitive); cited from earlier work
# [4] = tested on: P. falciparum W2 strain (chloroquine-resistant); parameters: method as in PMID 29642881, PMID 33689276; conditions: cited from earlier work
# parasitemia = tested on: parasitemia; parameters: method as in PMID 19273690; conditions: C57BL/6 mice, three consecutive days, 3.75 mg/kg/day; cited from earlier work
smiles,measurement,setting,value
O=C1NC(c2c[nH]c3ccc(O)cc23)=C/C1=C1\C(=O)Nc2ccccc21 [violacein],Violacein metabolized,[1],30%
same,Violacein metabolized,[2],Approximately 50%
same,MIC,Trichophyton rubrum,2 µg/mL
same,MIC,Candida albicans,8 µg/mL
same,MIC,Candida tropicalis,16 µg/mL
same,IC50,Caco-2 cells,~2000 nM
same,IC50,[3],~400 nM
same,IC50,[4],500 nM
same,Reduction in parasitemia,parasitemia,82%
